# Columns and labels:
# [1] = target: T1, glucokinase (GK) enzyme (Homo sapiens, UniProt P35557); test: In-vitro glucokinase (GK) activation assay (coupled with glucose-6-phosphate dehydrogenase, absorbance at 340); assay type: biochemical; conditions: glucose 2.5 mM; for activity at 0.1 µM / activity at 1 µM / activity at 5 µM / activity at 10 µM: read-out: % of GK activity wrt DMSO; for EC50: GK enzyme 0.2 units, ATP 1 mM
# T1 sequence (P35557 1-465): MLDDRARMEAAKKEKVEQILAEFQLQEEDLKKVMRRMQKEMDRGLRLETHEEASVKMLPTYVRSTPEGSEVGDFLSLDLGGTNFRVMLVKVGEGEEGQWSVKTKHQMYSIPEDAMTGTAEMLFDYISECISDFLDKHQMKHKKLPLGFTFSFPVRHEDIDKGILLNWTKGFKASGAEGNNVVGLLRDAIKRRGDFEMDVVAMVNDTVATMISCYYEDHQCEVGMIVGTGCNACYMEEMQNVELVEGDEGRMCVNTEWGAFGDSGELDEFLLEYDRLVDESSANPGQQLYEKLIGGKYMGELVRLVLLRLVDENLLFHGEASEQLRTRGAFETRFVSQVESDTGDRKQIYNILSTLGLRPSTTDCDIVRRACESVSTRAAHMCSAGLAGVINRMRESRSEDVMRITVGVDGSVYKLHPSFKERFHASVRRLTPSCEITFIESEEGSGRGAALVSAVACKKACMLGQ
# Experimental: The compound of the invention was incubated with glucokinase (GK) enzyme (0.2 units) for 10 minutes in assay buffer at 26° C. After incubation, addition of glucose-6-phosphate dehydrogenase (2.5 units), ATP (1 mM) and glucose (2.5 mM). Absorbance is measured at 340 nm for 15 minutes with 10 second interval using UV transparent plate in kinetic mode on Spectramax-190 at 30° C.
# [2] = system: Male C57 mice; test: Oral glucose tolerance test (OGTT), overnight fasted; assay type: in vivo; conditions: for % change in glucose levels Vs Control: treated at −30 min, oral glucose load 3 g/kg at 0 min; for % change in glucose levels Vs Control, Mean: Mean over the time points, oral glucose load 3 g/kg
# Experimental: Effect of Glucokinase Activators (GKAs) of the Present Invention on Glucose Reduction Determined by Oral Glucose Tolerence Test (OGTT):
# Male C57 mice, aged 8-10 weeks were fasted overnight and subjected to the treatment of selected GK activator at time denoted as −30 min. At time 0 min, mice were given oral glucose load of 3 g/kg, and the glucose excursion was observed upto 120 min. The percentage change against the change in glucose levels of control are mentioned in the table 2.
Molecule,activity at 0.1 µM ([1]; 0.1 uM compound),activity at 1 µM ([1]; 1 uM compound),activity at 5 µM ([1]; 5 uM compound),activity at 10 µM ([1]; 10 uM compound),EC50 [1],% of GK activity wrt DMSO ([1]; 0.1 uM compound),% of GK activity wrt DMSO ([1]; 1 uM compound),% of GK activity wrt DMSO ([1]; 5 uM compound),% of GK activity wrt DMSO ([1]; 10 uM compound),% change in glucose levels Vs Control ([2]; 0 min Vs −30 min),% change in glucose levels Vs Control ([2]; 30 min Vs −30 min),% change in glucose levels Vs Control ([2]; 60 min Vs −30 min),% change in glucose levels Vs Control ([2]; 120 min Vs −30 min),"% change in glucose levels Vs Control, Mean [2]"
"Cc1nnc(-c2ccc(Oc3cc(OC4CCN(C)C4=O)cc(C(=O)Nc4nccs4)c3)cc2)o1 (centres unmarked) [Example 1, 3-(4-(5-Methyl-1,3,4-oxadiazol-2-yl)phenoxy)-5-(1-methyl-2-oxopyrrolidin-3-yloxy)-N-(thiazol-2-yl)benzamide]",276%,309%,316%,309%,0.021 µM,,,,,−32.7 ± 2.8%,3.3 ± 9.7%,−39.5 ± 7.0%,−24.3 ± 9.0%,−23.3%
"Cc1nnc(-c2ccc(Oc3cc(OC4CCN(C)C4=O)cc(C(=O)Nc4ncc(C)s4)c3)cc2)o1 (centres unmarked) [Example 2, 3-(4-(5-Methyl-1,3,4-oxadiazol-2-yl)phenoxy)-5-(1-methyl-2-oxopyrrolidin-3-yloxy)-N-(5-methylthiazol-2-yl)benzamide]",205%,227%,233%,236%,0.04 µM,,,,,−34.5 ± 3.2%,−13.5 ± 8.8%,−49.6 ± 11.2%,−53.2 ± 3.1%,−37.7%
CCOC(=O)Cc1csc(NC(=O)c2cc(Oc3ccc(-c4nnc(C)o4)cc3)cc(OC3CCN(C)C3=O)c2)n1 (centres unmarked) [Example 3],186%,284%,312%,316%,0.196 µM,,,,,−18.8 ± 5.8%,−4.1 ± 6.0%,−3.9 ± 4.3%,−15.8 ± 3.7%,−10.6%
"Cc1nnc(-c2ccc(Oc3cc(OC4CCN(C)C4=O)cc(C(=O)Nc4nc(CC(=O)O)cs4)c3)cc2)o1 (centres unmarked) [Example 4, 2-(2-(3-(4-(5-Methyl-1,3,4-oxadiazol-2-yl)phenoxy)-5-((1-methyl-2-oxopyrrolidin-3-yl)oxy)benzamido)thiazol-4-yl)acetic acid]",148%,273%,330%,322%,0.32 µM,,,,,−23.3 ± 3.1%,−22.1 ± 6.1%,−21.8 ± 5.9%,−16.7 ± 5.9%,−21.0%
"Cc1csc(NC(=O)c2cc(Oc3ccc(-c4nnc(C)o4)cc3)cc(OC3CCN(C)C3=O)c2)n1 (centres unmarked) [Example 13, 3-(4-(5-Methyl-1,3,4-oxadiazol-2-yl)phenoxy)-5-(1-methyl-2-oxopyrrolidin-3-yloxy)-N-(4-methylthiazol-2-yl)benzamide]",234%,302%,320%,318%,0.074 µM,,,,,−38.7 ± 3.5%,−34.5 ± 9.3%,−48.2 ± 7.5%,−60.5 ± 4.5%,−45.5%
"Cc1nnc(-c2ccc(Oc3cc(OC4CCN(C5CCCCC5)C4=O)cc(C(=O)Nc4nccs4)c3)cc2)o1 (centres unmarked) [Example 36, 3((1-Cyclohexyl-2-oxopyrrolidin-3-yl)oxy)-5-(4-(5-methyl-1,3,4-oxadiazol-2-yl)phenoxy)-N-(thiazol-2-yl)benzamide]",133%,177%,254%,225%,,,,,,,,,,

# More lines, main results first:
activity at 0.1 µM ([1]; 0.1 uM compound),activity at 1 µM ([1]; 1 uM compound),activity at 5 µM ([1]; 5 uM compound),activity at 10 µM ([1]; 10 uM compound),EC50 [1],% of GK activity wrt DMSO ([1]; 0.1 uM compound),% of GK activity wrt DMSO ([1]; 1 uM compound),% of GK activity wrt DMSO ([1]; 5 uM compound),% of GK activity wrt DMSO ([1]; 10 uM compound),Molecule,% change in glucose levels Vs Control ([2]; 0 min Vs −30 min),% change in glucose levels Vs Control ([2]; 30 min Vs −30 min),% change in glucose levels Vs Control ([2]; 60 min Vs −30 min),% change in glucose levels Vs Control ([2]; 120 min Vs −30 min),"% change in glucose levels Vs Control, Mean [2]"
107%,151%,290%,329%,,,,,,"Cc1nnc(-c2ccc(Oc3cc(OC4CCN(C)C4=O)cc(C(=O)Nc4nc(-c5ccccc5)cs4)c3)cc2)o1 (centres unmarked) [Example 37, 3-(4-(5-Methyl-1,3,4-oxadiazol-2-yl)phenoxy)-5-((1-methyl-2-oxopyrrolidin-3-yl)oxy)-N-(4-phenylthiazol-2-yl)benzamide]",11.9 ± 8.2%,−26.5 ± 12.8%,−43.5 ± 3.8%,−24.9 ± 5.3%,−17.0%
150%,205%,252%,256%,,,,,,"Cc1nnc(-c2ccc(Oc3cc(OC4CCN(C)C4=O)cc(C(=O)Nc4ncc(Br)s4)c3)cc2)o1 (centres unmarked) [Example 38, N-(5-Bromothiazol-2-yl)-3-(4-(5-methyl-1,3,4-oxadiazol-2-yl)phenoxy)-5-((1-methyl-2-oxopyrrolidin-3-yl)oxy)benzamide]",,,,,
151%,179%,215%,262%,,,,,,"Cc1nnc(-c2ccc(Oc3cc(OC4CCN(C)C4=O)cc(C(=O)Nc4ncccc4O)c3)cc2)o1 (centres unmarked) [Example 39, N-(3-hydroxypyridin-2-yl)-3-(4-(5-methyl-1,3,4-oxadiazol-2-yl)phenoxy)-5-((1-methyl-2-oxopyrrolidin-3-yl)oxy)benzamide]",,,,,
144%,238%,255%,271%,0.034 µM,,,,,"Cc1nnc(-c2ccc(Oc3cc(O[C@H]4CCN(C)C4=O)cc(C(=O)Nc4nccs4)c3)cc2)o1 [Example 68, (S)-3-(4-(5-Methyl-1,3,4-oxadiazol-2-yl)phenoxy)-5-((1-methyl-2-oxopyrrolidin-3-yl)oxy)-N-(thiazol-2-yl)benzamide]",−46.7 ± 0.8%,−25.6 ± 7.2%,−51.5 ± 4.9%,−58.2 ± 6.7%,−46.6%
,,,,,116.7%,170.1%,249.2%,255.3%,"Cc1nnc(-c2ccc(Oc3cc(O[C@H]4CCN(C)C4=O)cc(C(=O)Nc4ncc(C#N)s4)c3)cc2)o1 [Example 69, (S)-(5-cyanothiazol-2-yl)-3-(4-(5-methyl-1,3,4-oxadiazol-2-yl)phenoxy)-5-((1-methyl-2-oxopyrrolidin-3-yl)oxy)benzamide]",−58.6 ± 5.6%,−91.2 ± 1.3%,−84.4 ± 0.9%,−72.9 ± 5.6%,−75.2%
112%,141%,230%,261%,0.356 µM,,,,,"Cc1nnc(-c2ccc(Oc3cc(O[C@@H]4CCN(C)C4=O)cc(C(=O)Nc4nccs4)c3)cc2)o1 [Example 77, (R)-3-(4-(5-methyl-1,3,4-oxadiazol-2-yl)phenoxy)-5-((1-methyl-2-oxopyrrolidin-3-yl)oxy)-N-(thiazol-2-yl)benzamide]",−4.8 ± 7.5%,−15.1 ± 6.6%,−13.9 ± 7.3%,−22.0 ± 3.3%,−11.2%
,,,,,238.3%,315.1%,318.4%,325.6%,"(S)-3-(4-(5-methyl-1,3,4-oxadiazol-2-yl)phenoxy)-5-((2-oxopyrrolidin-3-yl)oxy)-N-(thiazol-2-yl)benzamide [Example 70]",,,,,
